Patent US20060270841A1, “Assays to monitor amyloid precursor protein processing” (priority 2002, published 2006)

How the values were obtained:
Assay type in all cases: cell-based
[1] = test system: Aβ; assay: Production of Aβ in conditioned media of transfected 293T and H4 cells; details: 10 μM L-685,458, 1 mL conditioned media
Method: 1 mL of conditioned media from each well was analyzed for production of Aβ.

[2] = test system: APP processing; assay: APP/TAT fusion protein with LTR-EGFP reporter (pMM321), transient transfection in H4 cells (Example 2); details: for fluorometer reading: 10 uM 458, 100,000 cells
Method: (§1) “pcDNA3.1 zeo (+) APP(1-651)SW, K612V-(M1L)TATexonI,” “pMM321,” and “pUCd5TAT” are the same as in Example 1. H4 cells (ATCC HTB-148) are a neuronal cell line.
(§2) • Day 1: Plated out 2×6 well plates of HEK293T cells and 2×6 well plates of H4 cells at 1×10^5 cells/well. • Day 2: Transfected cells with 2 μg total DNA—pcDNA3.1 zeo (+) APP(1-651)SW, K612V-(M1L)TATexonI and carrier (a pET-IN plasmid). Plate 1:
(§3) 3,4: 0.1 μg pMM321+0.1 μg pcDNA3.1 zeo (+) APP(1-651)SW, K612V-(M1L)TATexonI+1.8 μg carrier (added too 0.5×carrier to this mix in 293T cells)
Transfections for H4 cells: 6 μL Fugene/well. Combined with DNA in Optimem and incubated and added to cells according to manufacturer's instructions.
(§4) Added 10 μM L-685,458 to Plates 1 and 2, wells 2 and 4 for both cell types within 1 hour of transfection. Observed cells periodically.
(§5) Took pictures at 24, 46 hours after transfection, using AE lock to keep exposures constant between wells.
(§6) Changed media on cells at 24 hours past transfection. Kept 10 μM L-685,458 on cells in wells 2 and 4.
(§7) 100,000 cells from each well were trypsinized and placed in 0.1 mL phenol red-free media in a Costar 96-well dish and read using the fluorometer.

[3] = test system: APP processing; assay: APP/TAT fusion protein with LTR-EGFP reporter (pMM321), transient transfection in HEK293T cells (Example 2); details: for # Bright / # Med / # Non / # Strong: count from photographs; for fluorometer reading: 293T, 10 uM 458, 100,000 cells
Method: as §1, §2, §3
Transfections for HEK293T cells: 9 μL Fugene/well. Combined with DNA in Optimem and incubated and added to cells according to manufacturer's instructions.
as §4, §5, §6
Took some photographs under fluorescent and white light (white light at low intensity) to reveal fluorescent and non-fluorescent cells. Conducted a subjective analysis of the photographs to see if the amount of inhibition by 10 μL-685,458 was in any way quantifiable. Counted bright (white in the middle), strong (blue middle), medium (green) and dim/non-fluorescent cells and determined the approximate fraction of each level of expression. Results follow:
as §7

[4] = test system: APP processing; assay: APP-TAT-APPct32 fusion protein with LTR β-galactosidase reporter in P4-R5 HeLa cells (Example 8); details: 10 μM inhibitor
Method: P4-R5 cells are HeLa cells that contain a stably integrated β-galactosidase reporter gene under the control of the HIV1 LTR.
1.) Cell count on P4-R5 cells=7.6×10^5 cells per ml in cDMEM (−)PR. Seeded sterile white luminometer TC plates with the following cell numbers:
• 5×10^3/well=0.75 ml in 9.25 ml media • 1.0×10^4/well=1.5 ml in 8.5 ml media • Seeded 100 μL cells per well. • Incubate overnight at 37° C., 5% CO2. Day 2
2.) Made up media with appropriate dilutions of inhibitors. • On no-inhibitor controls, added 100 μL of cDMEM with 1% DMSO • On wells with Compound X, added 10 μM inhibitor in cDMEM • On wells with L-875,532, added 10 μM inhibitor in cDMEM
3.) Prior to transfection, pulled off media on P4-R5 cells and replaced with media −/+inhibitor. • FUGENE® transfection: • For FUGENE® transfection:
4.) Added 600 μL of OPTIMEM® to sterile EPPENDORF® tube and carefully added 30 μL FUGENE® to media, without touching walls of tube. Incubated at room temperature for 5 minutes. • In separate EPPENDORF® tubes, added each DNA. • Added FUGENE®/OPTIMEM® dropwise to DNA; incubated at room temperature for 15 minutes.
Added 15 μL/well of DNA/FUGENE®/OPTIMEM® dropwise to media in appropriate wells on P4-R5 cells, swirling to mix. […]
6. Read immediately in luminometer using standard file. Filled in required fields, read plate.

[5] = test system: APP processing; assay: APP/TAT fusion protein with LTR-GFP reporter in H4 cells, FLUOstar reading (Example 3); details: for Fluor Units: approximately 48 hours, 485 excitation/538 emission
Method: 1. H4 cells (ATCC HTB-148) were transfected with the various constructs listed below using 6 μL Fugene per 100 μL Optimem and 100 μL Optimem per well (6-well dishes). Transfection reactions were incubated for 30 minutes prior to adding 100 μL dropwise onto wells.
Transfections were done as follows:
1. 1 μg pMM321 (FIG. 25A-D) and 1 μg pcDNA3.1 backbone
1a. 1 μg pMM321 and 1 μg pcDNA3.1 (Invitrogen, San Diego, Calif.) backbone. Prior to transfection, 10 μM L-875,532 (γ-secretase inhibitor) was added to the well.
2. 1 μg pMM321 and 1 μg pRBR186 (FIG. 22A; APP expression vector; processing and inhibition of processing control)
2a. 1 μg pMM321 and 1 μg pRBR186. Prior to transfection, 10 μM L-875,532 was added to cells (transfection solution for 3-5 were prepared in bulk)
4. and 4a. 1 μg pMM321 and 1 μg pcDNA3.1 zeo (+) APP(1-651)SW, K612V-(M1L)TATexonI. Prior to transfection, 10 μM L-875,532 was added to the two wells.
5. and 5a. 1 μg pMM321 and 1 μg pcDNA3.1 zeo (+) APP(1-651)SW, K612V-(M1L)TATexonI. Prior to transfection, 10 μM Compound X was added to the two wells
7. 1 μg pMM321 and 1 μg pUCd5 TAT. Prior to transfection, 10 μM L-875,532 was added to the cells.
Cells were assessed by eye under a fluorescence microscope the morning following transfection (˜20 hrs).
At approximately 48 hours, cells were trypsinized, spun down, and resuspended in 100 μL PBS. The cellular contents of each well of the transfection plates were placed into one well of a 96-well fluorescence plate. Fluorescence was analyzed using the FLUOstar (485 excitation/538 emission).

[6] = 293T cells, 46 hours, 1 μg pMM321 + 0.1 μg APP/TAT vector + cmpd (10 μM)
[7] = 293T cells, 46 hours, 1 μg pMM321 + 1 μg APP/TAT vector + cmpd (10 μM), approximate fraction of cells
[8] = 293T cells, 46 hours, 1 μg pMM321 + 1 μg APP/TAT vector + cmpd (10 μM)

Compound: CC(C)C[C@H](NC(=O)[C@H](Cc1ccccc1)C[C@@H](O)[C@H](Cc1ccccc1)NC(=O)OC(C)(C)C)C(=O)N[C@@H](Cc1ccccc1)C(N)=O [L-685,458, {1S-Benzyl-4R-[1-(1S-carbamoyl-2-phenylethylcarbamoyl)-1S-3-methylbutylcarbamoyl]-2R-hydroxy-5-phenylpentyl}carbamic acid tert-butyl ester]
- Aβ in conditioned media [1]: completely inhibited to background levels
- fluorometer reading ([2]; H4, 0.1 ug LTRGFP, 0.1 ug APPtat): 6957
- fluorometer reading ([2]; H4, 0.1 ug LTRGFP, 1 ug APPTAT): 10031
- fluorometer reading ([2]; H4, 1 ug LTRGFP, 0.1 ug APPtat): 7136
- fluorometer reading ([2]; H4, 1 ug LTRGFP, 1 ug APPTAT): 25307
- bright green cells/field ([2]; H4 cells, 24 hours, 0.1 μg pMM321 + 1 μg APP/TAT vector, 10 μM L-685,458): 3-5 cells/field
- green (GFP) cells observed under the microscope ([2]; H4 cells, 24 hours, 1 ug pMM321 + 1 ug APP/TAT vector, 10 μM L-685,458): reduced compared with well #1
- inhibition of fluorescence (fluorometer) ([2]; H4 cells, any transfection conditions, 10 μM L-685,458): No inhibition of fluorescence was observed
- inhibition of GFP ([3]; 10 μM L-685,458, same wells as the Aβ analysis (293T and H4 cells)): substantial inhibition of GFP was not observed
- inhibition of fluorescence (fluorometer) ([3]; 293T cells, 0.1 μg APP/TAT vector + 0.1 μg pMM321, 10 μM L-685,458): Inhibition of fluorescence was also observed
- inhibition of fluorescence (fluorometer) ([3]; 293T cells, 1 μg APP/TAT vector + 1 μg pMM321, 10 μM L-685,458): reduced to background levels
- effect on numbers of fluorescing cells (Table 1, second run) ([3]; 293T cells, 1 μg pMM321 + 0.1 μg APP/TAT vector, with vs without cmpd): fewer bright and strong fluorescing cells as well as more non-fluorescent cells
- effect on numbers of fluorescing cells (Table 1, first run) ([3]; 293T cells, 1 μg pMM321 + 1 μg APP/TAT vector, with vs without cmpd): fewer strong and medium fluorescing cells as well as more non-fluorescent cells
- # Bright [3, 6]: 23
- # Med [3, 6]: 149
- # Non [3, 6]: 194
- # Strong [3, 6]: 32
- % Med [3, 7]: 11%
- % Non [3, 7]: 88%
- % Strong [3, 7]: 0.8%
- # Bright [3, 8]: none
- # Med [3, 8]: 66
- # Non [3, 8]: 521
- # Strong [3, 8]: 5
- fluorometer reading ([3]; 0.1 ug LTRGFP, 0.1 ug APPtat): 14790
- fluorometer reading ([3]; 0.1 ug LTRGFP, 1 ug APPTAT): 10491
- fluorometer reading ([3]; 1 ug LTRGFP, 0.1 ug APPtat): 65535
- fluorometer reading ([3]; 1 ug LTRGFP, 1 ug APPTAT): 14321
- green (GFP) cells observed ([3]; HEK293T cells, 24 hours, 0.1 μg pMM321 + 0.1 μg APP/TAT vector, 10 μM L-685,458): Bright, medium, and dim green cells
- green (GFP) cells observed ([3]; HEK293T cells, 24 hours, 0.1 μg pMM321 + 1 μg APP/TAT vector, 10 μM L-685,458): Bright, medium, and dim green cells
- green (GFP) cells observed ([3]; HEK293T cells, 24 hours, 1 μg pMM321 + 0.1 μg APP/TAT vector, 10 μM L-685,458): Fewer bright green cells/field but intensity does not appear strongly diminished
- green (GFP) cells observed, of 15 cells ([3]; HEK293T cells, 24 hours, 1 μg pMM321 + 1 μg APP/TAT vector, 10 μM L-685,458): 6 very dim, 5 dim, 1 medium, 3 bright

Compound: C[C@H](NC(=O)Cc1cc(F)cc(F)c1)C(=O)N[C@H]1N=C(c2ccccc2)c2ccccc2N(C)C1=O [L-875,532]
- transactivation of the LTR by pUCd5TAT (control) [4]: not affected by either inhibitor
- Fluor Units ([5]; pMM321 + APP-TAT-ct32, 10 μM inhibitor): 8283 Fluor Units
- decrease of fluorescence (fold) ([5]; pMM321 + APP/TAT vector, 10 μM inhibitor vs no inhibitor): 2.5 ×
- Fluor Units ([5]; pMM321 + pRBR186 (control), 10 μM inhibitor): 2161 Fluor Units
- Fluor Units ([5]; pMM321 alone (control), 10 μM inhibitor): 3443 Fluor Units
- fluorescence assessed by eye under a fluorescence microscope ([5]; ~20 hrs, 1 μg pMM321 + 1 μg APP/TAT vector, 10 μM inhibitor): Clear inhibition of fluorescence
